In US5597899A, “Tumor necrosis factor muteins” (Hoffmann-La Roche Inc., priority 1993, dated 1997):

How the values were obtained:
human TNFR-p75 = assay: Solid phase radioligand competition binding assay, E. coli lysates, TNFR-p75; details: 10-fold serial dilutions 10^-2 to 10^-7, < = inhibition but below 50% at 1:100, << = no measurable inhibition at 1:100
Procedure: (§1) 10 ml suspensions of E. coli cells transformed and induced as described in Examples I and II were centrifuged at 4'000 rpm for 10 min and resuspended in 0.9 ml of lysis buffer (10 mM Tris-HCl pH 8.0, 5 mM EDTA, 2 mM PMSF, 10 mM benzamidine, 200 units/ml aprotinine and 0.1 mg/ml lysozyme). After 20 min incubation at room temperature 50 μl of 1M MgCl2, 20 μl of 5 mg/ml DNaseI, 50 μl of 5M NaCl and 50 μl of 10% NP-40 were added and the mixture was further incubated at room temperature for 15 min. 0.5 ml of the lysate clarified by centrifugation at 13'000 rpm for 5 min was subjected to ammonium sulfate precipitation (25%-70% cut). The 70% ammonium sulfat pellet was dissolved in 0.2 ml PBS and analyzed by sodium dodecyl sulfate polyacrylamide gel electrophoresis (SDS-PAGE) to confirm presence and approximate amount of the recombinant proteins.
96 well microtiter plates were coated with recombinant human […] TNFR-p75-hγ3 and TNFR-p55-hγ3 fusion proteins (extracellular portion of the receptor fused to the Fc part of human IgG3) at a concentration of 0.3 μg/ml and 0.1 μg/ml, respectively, in phosphate buffered saline (PBS, 100 μl/well, overnight at 4° C.) [Loetscher, H. et al. J. Biol. Chem. 266, 18324-18329 (1991); Lesslauer, W. et al. Eur. J. Immunol. 21, 2883-2886 (1991)]. After blocking with blocking buffer (50 mM Tris pH 7.4, 140 mM NaCl, 5 mM EDTA, 0.02% NAN3, 1% defatted milk powder) the microtiter plate was washed with PBS and incubated in blocking buffer containing 0.1% defatted milk powder with 10 ng/ml human wild-type ^125 I-TNFα and various dilutions of E. coli lysates ranging from 10^-2 to 10^-7 (10-fold serial dilutions). TNFα was labelled by the Iodogen method (Pierce Chemical Company) to a specific activity of about 10-30 μCi/μg. The volume was 100 μl/well and each lysate dilution was assayed in duplicate or triplicate. After three hours at room temperature the wells were thoroughly washed with PBS and counted in a γ-counter. The results are given in Table 2 for lysates comprising the muteins indicated therein.

human TNFR-p55 = assay: Solid phase radioligand competition binding assay, E. coli lysates, TNFR-p55; details: for Dilution of E. coli Lysate for 50% Inhibition of 125I-TNFα Binding (ID50) TNFR-p55: 10-fold serial dilutions 10^-2 to 10^-7, < = inhibition but below 50% at 1:100, << = no measurable inhibition at 1:100; for ID50 TNFR-p55 / ID50 TNFR-p75: ratio = 1 no receptor selectivity, > 1 TNFR-p55 selectivity, < 1 TNFR-p75 selectivity
Procedure: as §1, with “After” for “10 ml suspensions of E. coli cells transformed and induced as described in Examples I and II were centrifuged at 4'000 rpm for 10 min and resuspended in 0.9 ml of lysis buffer (10 mM Tris-HCl pH 8.0, 5 mM EDTA, 2 mM PMSF, 10 mM benzamidine, 200 units/ml aprotinine and 0.1 mg/ml lysozyme). After”
TNFα was labelled by the Iodogen method (Pierce Chemical Company) to a specific activity of about 10-30 μCi/μg. The volume was 100 μl/well and each lysate dilution was assayed in duplicate or triplicate. After three hours at room temperature the wells were thoroughly washed with PBS and counted in a γ-counter. The results are given in Table 2 for lysates comprising the muteins indicated therein.

Row | Substance | Dilution of E. coli Lysate for 50% Inhibition of 125I-TNFα Binding (ID50) TNFR-p75 (human TNFR-p75) | Dilution of E. coli Lysate for 50% Inhibition of 125I-TNFα Binding (ID50) TNFR-p55 (human TNFR-p55) | ID50 TNFR-p55 / ID50 TNFR-p75 (human TNFR-p55)
1 | A33D: human TNFα mutein A33D | < 100 fold | < 100 fold | > 1
2 | A33T: human TNFα mutein A33T | 1,250 fold | 1,110 fold | 0.9
3 | A145D: human TNFα mutein A145D | 6,670 fold | 5,000 fold | 0.7
4 | A145G: human TNFα mutein A145G | 6,670 fold | 2,500 fold | 0.4
5 | A145H: human TNFα mutein A145H | 1,670 fold | 330 fold | 0.2
6 | A145K: human TNFα mutein A145K | 1,820 fold | < 100 fold | < 0.05
7 | A145S: human TNFα mutein A145S | 25,000 fold | 14,290 fold | 0.6
8 | A145T: human TNFα mutein A145T | 6,670 fold | 5,000 fold | 0.7
9 | A145V: human TNFα mutein A145V | 2,000 fold | 1,000 fold | 0.5
10 | A145Y: human TNFα mutein A145Y | 11,110 fold | 1,670 fold | 0.1
11 | D143E: human TNFα mutein D143E | 330 fold | < 100 fold | < 0.3
12 | D143F: human TNFα mutein D143F | 250 fold | < 100 fold | < 0.4
13 | D143V-A145S: human TNFα mutein D143V-A145S | 200 fold | < 100 fold | < 0.5
14 | D143V: human TNFα mutein D143V | < 100 fold | < 100 fold | < 1
15 | D143W: human TNFα mutein D143W | 100 fold | < 100 fold | < 1
16 | E146R: human TNFα mutein E146R | < 100 fold | 6,670 fold | > 67
17 | F144D: human TNFα mutein F144D | 330 fold | 5,000 fold | 15.2
18 | F144G: human TNFα mutein F144G | 2,000 fold | 2,500 fold | 1.2

Row | Substance | Dilution of E. coli Lysate for 50% Inhibition of 125I-TNFα Binding (ID50) TNFR-p75 (human TNFR-p75) | Dilution of E. coli Lysate for 50% Inhibition of 125I-TNFα Binding (ID50) TNFR-p55 (human TNFR-p55) | ID50 TNFR-p55 / ID50 TNFR-p75 (human TNFR-p55)
19 | F144L: human TNFα mutein F144L | 5,000 fold | 5,000 fold | 1
20 | F144R: human TNFα mutein F144R | 330 fold | 2,500 fold | 7.6
21 | F144W: human TNFα mutein F144W | 180 fold | 400 fold | 2.2
22 | F144Y: human TNFα mutein F144Y | 2,860 fold | 2,860 fold | 1
23 | H73Q: human TNFα mutein H73Q | 10,000 fold | 10,000 fold | 1
24 | H73T: human TNFα mutein H73T | 2,000 fold | 2,000 fold | 1
25 | I97K: human TNFα mutein I97K | < 100 fold | 143 fold | > 1.4
26 | I97Y: human TNFα mutein I97Y | 330 fold | 2,500 fold | 7.6
27 | K65A: human TNFα mutein K65A | 33,330 fold | 20,000 fold | 0.6
28 | K65W: human TNFα mutein K65W | 3,330 fold | 500 fold | 0.2
29 | L29S-R32W: human TNFα mutein L29S-R32W | < 100 fold | 5,000 fold | > 50
30 | L29S-S86T: human TNFα mutein L29S-S86T | < 100 fold | 200 fold | > 2
31 | L75H: human TNFα mutein L75H | 2,500 fold | 1,670 fold | 0.7
32 | L75R: human TNFα mutein L75R | < 100 fold | < 100 fold | 1
33 | L75W: human TNFα mutein L75W | 330 fold | 220 fold | 0.7
34 | N19D: human TNFα mutein N19D | 5,000 fold | 5,000 fold | 1
35 | N30T: human TNFα mutein N30T | 2,500 fold | 2,860 fold | 1.1
36 | N34C: human TNFα mutein N34C | < 100 fold | 250 fold | > 2.5
